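Cultured in 96-well plates, cells were exposed to test compound for 48 hours across five concentrations. GI50 is the concentration that inhibits growth by half.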 The source made the active and inactive calls. No stated cut-off is given here; in the data, active = GI50 up to about 1.1 µM and inactive = higher.
Assays:
Assay in all cases: NCI-60 cell line screen, 48 h
[1] = system: HCC 2998
[2] = system: RXF 393
[3] = system: HT-29
[4] = system: UO-31
[5] = system: OVCAR-5
[6] = system: HOP-62
[7] = system: DU-145
[8] = system: UACC-62
[9] = system: 786-0
[10] = system: TK-10
[11] = system: NCI/ADR-RES
[12] = system: LOX IMVI
[13] = system: NCI-H460
[14] = system: KM12
[15] = system: SF-295
[16] = system: PC-3
[17] = system: Malme-3M
[18] = system: SN12C
[19] = system: SR
[20] = system: A549
[21] = system: OVCAR-3
[22] = system: NCI-H226
[23] = system: NCI-H23
[24] = system: EKVX
[25] = system: BT-549
[26] = system: MDA-MB-435
[27] = system: Hs-578T
[28] = system: HCT-116
[29] = system: U-251
[30] = system: HOP-92
[31] = system: IGROV-1
[32] = system: RPMI-8226
[33] = system: SK-MEL-2
[34] = system: SK-OV-3
[35] = system: MDA-N
[36] = system: MDA-MB-231
[37] = system: SNB-75
[38] = system: HL-60
[39] = system: HCT-15
[40] = system: MOLT-4
[41] = system: SW-620
[42] = system: COLO 205
[43] = system: SK-MEL-28
[44] = system: CCRF-CEM
[45] = system: SF-268
[46] = system: OVCAR-4
[47] = system: ACHN
[48] = system: NCI-H522
[49] = system: K562
[50] = system: OVCAR-8
[51] = system: SNB-19
[52] = system: SK-MEL-5
[53] = system: A498
[54] = system: MCF7
[55] = system: UACC-257
[56] = system: CAKI-1
[57] = system: SF-539

SMILES: COc1ccc(N2C(=O)c3cc([N+](=O)[O-])cnc3S2(=O)=O)cc1
- GI50 [1]: > 100 µM (inactive)
- GI50 [2]: > 100 µM (inactive)
- GI50 [3]: > 100 µM (inactive)
- GI50 [4]: > 100 µM (inactive)
- GI50 [5]: > 100 µM (inactive)
- GI50 [6]: > 100 µM (inactive)
- GI50 [7]: > 100 µM (inactive)
- GI50 [8]: > 100 µM (inactive)
- GI50 [9]: > 100 µM (inactive)
- GI50 [10]: > 100 µM (inactive)
- GI50 [11]: > 100 µM (inactive)
- GI50 [12]: > 100 µM (inactive)
- GI50 [13]: > 100 µM (inactive)
- GI50 [14]: > 100 µM (inactive)
- GI50 [15]: > 100 µM (inactive)
- GI50 [16]: > 100 µM (inactive)
- GI50 [17]: > 100 µM (inactive)
- GI50 [18]: > 100 µM (inactive)
- GI50 [19]: > 100 µM (inactive)
- GI50 [20]: > 100 µM (inactive)
- GI50 [21]: > 100 µM (inactive)
- GI50 [22]: > 100 µM (inactive)
- GI50 [23]: > 100 µM (inactive)
- GI50 [24]: > 100 µM (inactive)
- GI50 [25]: > 100 µM (inactive)
- GI50 [26]: > 100 µM (inactive)
- GI50 [27]: > 100 µM (inactive)
- GI50 [28]: > 100 µM (inactive)
- GI50 [29]: > 100 µM (inactive)
- GI50 [30]: > 100 µM (inactive)
- GI50 [31]: > 100 µM (inactive)
- GI50 [32]: > 100 µM (inactive)
- GI50 [33]: > 100 µM (inactive)
- GI50 [34]: > 100 µM (inactive)
- GI50 [35]: > 100 µM (inactive)
- GI50 [36]: > 100 µM (inactive)
- GI50 [37]: > 100 µM (inactive)
- GI50 [38]: > 100 µM (inactive)
- GI50 [39]: > 100 µM
- GI50 [40]: > 100 µM (inactive)
- GI50 [41]: > 100 µM (inactive)
- GI50 [42]: > 100 µM (inactive)
- GI50 [43]: > 100 µM (inactive)
- GI50 [44]: > 100 µM (inactive)
- GI50 [45]: > 100 µM (inactive)
- GI50 [46]: > 100 µM (inactive)
- GI50 [47]: > 100 µM (inactive)
- GI50 [48]: > 100 µM (inactive)
- GI50 [49]: > 100 µM (inactive)
- GI50 [50]: > 100 µM (inactive)
- GI50 [51]: > 100 µM (inactive)

SMILES: N/N=C1/C2CN3CCN(C2)CC1(c1ccc([N+](=O)[O-])cc1)C3
- GI50 [2]: > 100 µM (inactive)
- GI50 [52]: > 100 µM (inactive)
- GI50 [53]: > 100 µM (inactive)
- GI50 [3]: > 100 µM (inactive)
- GI50 [4]: > 100 µM (inactive)
- GI50 [5]: > 100 µM (inactive)
- GI50 [6]: > 100 µM (inactive)
- GI50 [7]: > 100 µM (inactive)
- GI50 [8]: > 100 µM (inactive)
- GI50 [9]: > 100 µM (inactive)
- GI50 [10]: > 100 µM (inactive)
- GI50 [11]: > 100 µM (inactive)
- GI50 [12]: > 100 µM (inactive)
- GI50 [54]: > 100 µM (inactive)
- GI50 [14]: > 100 µM (inactive)
- GI50 [15]: > 100 µM (inactive)
- GI50 [16]: > 100 µM (inactive)
- GI50 [17]: > 100 µM (inactive)
- GI50 [18]: > 100 µM (inactive)
- GI50 [19]: 27.7 µM (inactive)
- GI50 [55]: > 100 µM (inactive)
- GI50 [21]: > 100 µM (inactive)
- GI50 [22]: > 100 µM (inactive)
- GI50 [23]: > 100 µM (inactive)
- GI50 [24]: > 100 µM (inactive)
- GI50 [25]: > 100 µM (inactive)
- GI50 [26]: > 100 µM (inactive)
- GI50 [27]: 14.7 µM (inactive)
- GI50 [28]: > 100 µM (inactive)
- GI50 [29]: > 100 µM (inactive)
- GI50 [31]: > 100 µM (inactive)
- GI50 [32]: > 100 µM (inactive)
- GI50 [33]: > 100 µM (inactive)
- GI50 [35]: > 100 µM (inactive)
- GI50 [56]: > 100 µM (inactive)
- GI50 [36]: > 100 µM (inactive)
- GI50 [37]: > 100 µM (inactive)
- GI50 [38]: > 100 µM (inactive)
- GI50 [40]: > 100 µM (inactive)
- GI50 [57]: > 100 µM (inactive)
- GI50 [41]: > 100 µM (inactive)
- GI50 [42]: > 100 µM (inactive)
- GI50 [43]: > 100 µM (inactive)
- GI50 [45]: > 100 µM (inactive)
- GI50 [46]: > 100 µM (inactive)
- GI50 [47]: > 100 µM (inactive)
- GI50 [48]: > 100 µM (inactive)
- GI50 [49]: > 100 µM (inactive)
- GI50 [50]: > 100 µM (inactive)
- GI50 [51]: > 100 µM (inactive)

Reference: ChEMBL document CHEMBL1201862, “PubChem BioAssay data set” (2004)
